From PubChem BioAssay AID330 (DTP/NCI, 2004)
Where “and” joins values, the source holds several entries; their conditions need not be identical. Identical values can stand only once. Toxic doses and inconclusive results are not listed.

Test system: P388 leukemia ip, CD2F1 mice, survival T/C
Assay: NCI In Vivo Anticancer Drug Screen. Data for tumor model P388 Leukemia (intraperitoneal) in CD2F1 (CDF1) mice
Conditions: endpoint: median survival time, higher = longer survival
Outline: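 Mice carrying the transplanted tumor received test compound or vehicle. Survival was recorded in each group, and the value is the treated-group measurement divided by that of the vehicle-treated control group.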

[1] = dose: 200.0 mg/kg/injection, schedule: Q04DX003 (ip), vehicle: saline with Tween-80

Q: With `COc1cc2cc3c4cc(OC)c(OC)cc4cc[n+]3c(C)c2cc1OC` (tested in a mixture with another compound) as the compound, how does the T/C (dose: 12.5 mg/kg/injection, schedule: Q01DX009 (ip), vehicle: water) read?
A: 154 % of control

Q: And the T/C (dose: 16.0 mg/kg/injection, schedule: Q01DX009 (ip), vehicle: water)?
A: 106 % of control

Q: And the T/C (dose: 16.0 mg/kg/injection, schedule: Q01DX009 (sc), vehicle: water)?
A: 108 % of control

Q: And the T/C (dose: 25.0 mg/kg/injection, schedule: Q01DX009 (ip), vehicle: water)?
A: 158 % of control and 163 % of control and 172 % of control

Q: What about the T/C (dose: 25.9 mg/kg/injection, schedule: Q04DX003 (ip), vehicle: water) of the same compound?
A: 118 % of control

Q: What about the T/C (dose: 32.0 mg/kg/injection, schedule: Q01DX009 (ip), vehicle: water) of the same compound?
A: 105 % of control

Q: What about the T/C (dose: 32.0 mg/kg/injection, schedule: Q01DX009 (sc), vehicle: water) of the same compound?
A: 118 % of control

Q: And the T/C (dose: 43.2 mg/kg/injection, schedule: Q04DX003 (ip), vehicle: water)?
A: 123 % of control

Q: What about the T/C (dose: 50.0 mg/kg/injection, schedule: Q01DX009 (ip), vehicle: saline) of the same compound?
A: 191 % of control

Q: And the T/C (dose: 50.0 mg/kg/injection, schedule: Q01DX009 (ip), vehicle: water)?
A: 200 % of control

Q: What about the T/C (dose: 50.0 mg/kg/injection, schedule: Q04DX003 (ip), vehicle: water) of the same compound?
A: 152 % of control and 171 % of control

Q: And the T/C (dose: 64.0 mg/kg/injection, schedule: Q01DX009 (sc), vehicle: water)?
A: 123 % of control

Q: And the T/C (dose: 100.0 mg/kg/injection, schedule: Q01DX009 (ip), vehicle: saline)?
A: 90 % of control

Q: And the T/C (dose: 100.0 mg/kg/injection, schedule: Q01DX009 (ip), vehicle: water)?
A: 200 % of control

Q: And the T/C (dose: 100.0 mg/kg/injection, schedule: Q04DX003 (ip), vehicle: saline)?
A: 150 % of control

Q: What about the T/C (dose: 100.0 mg/kg/injection, schedule: Q04DX003 (ip), vehicle: water) of the same compound?
A: 158 % of control and 162 % of control and 187 % of control

Q: And the T/C (dose: 128.0 mg/kg/injection, schedule: Q01DX009 (ip), vehicle: water)?
A: 118 % of control

Q: What about the T/C (dose: 128.0 mg/kg/injection, schedule: Q01DX009 (sc), vehicle: water) of the same compound?
A: 115 % of control

Q: And the T/C [1]?
A: 183 % of control

Q: What about the T/C (dose: 200.0 mg/kg/injection, schedule: Q04DX003 (ip), vehicle: saline) of the same compound?
A: 184 % of control

Q: And the T/C (dose: 256.0 mg/kg/injection, schedule: Q01DX009 (ip), vehicle: water)?
A: 105 % of control

Q: What about the T/C (dose: 512.0 mg/kg/injection, schedule: Q01DX009 (ip), vehicle: water) of the same compound?
A: 89 % of control

Q: For `N#Cc1c(NCc2ccccc2)nc2c3ccccc3ccn2c1=O`, which T/C (dose: 25.0 mg/kg/injection, schedule: Q04DX002 (ip), vehicle: saline with Tween-80) is on record?
A: 95 % of control

Q: What about the T/C (dose: 50.0 mg/kg/injection, schedule: Q04DX002 (ip), vehicle: saline with Tween-80) of the same compound?
A: 97 % of control

Q: And the T/C (dose: 100.0 mg/kg/injection, schedule: Q04DX002 (ip), vehicle: saline with Tween-80)?
A: 95 % of control

Q: For `CC(SC(SC(C)C(=O)O)c1ccccc1)C(=O)O` (stereo not given), which T/C (dose: 100.0 mg/kg/injection, schedule: Q01DX001 (ip), vehicle: other) is on record?
A: 105 % of control

Q: What about the T/C (dose: 200.0 mg/kg/injection, schedule: Q01DX001 (ip), vehicle: other) of the same compound?
A: 107 % of control

Q: And the T/C (dose: 400.0 mg/kg/injection, schedule: Q01DX001 (ip), vehicle: other)?
A: 98 % of control

Q: `CSc1nc2c(NN)ncnc2s1` was tested. Which T/C (dose: 80.5 mg/kg/injection, schedule: Q01DX001 (ip), vehicle: distilled water + alcohol) did it give?
A: 106 % of control

Q: What about the T/C (dose: 161.0 mg/kg/injection, schedule: Q01DX001 (ip), vehicle: distilled water + alcohol) of the same compound?
A: 102 % of control

Q: And the T/C (dose: 322.0 mg/kg/injection, schedule: Q01DX001 (ip), vehicle: distilled water + alcohol)?
A: 102 % of control

Q: With `CCOC(=O)Cn1cnc2cc(C)c(C)cc21` as the compound, how does the T/C (dose: 100.0 mg/kg/injection, schedule: Q04DX003 (ip), vehicle: saline with Tween-80) read?
A: 90 % of control

Q: And the T/C [1]?
A: 100 % of control

Q: What about the T/C (dose: 400.0 mg/kg/injection, schedule: Q04DX003 (ip), vehicle: saline with Tween-80) of the same compound?
A: 90 % of control

Q: Which T/C (dose: 50.0 mg/kg/injection, schedule: Q01DX005 (ip), vehicle: saline) does the source give for `NC(=O)C/C(N)=N/O` here?
A: 98 % of control

Q: What about the T/C (dose: 100.0 mg/kg/injection, schedule: Q01DX005 (ip), vehicle: saline) of the same compound?
A: 101 % of control

Q: And the T/C (dose: 200.0 mg/kg/injection, schedule: Q01DX005 (ip), vehicle: saline)?
A: 100 % of control

Q: How did the T/C (dose: 50.0 mg/kg/injection, schedule: Q01DX005 (ip), vehicle: Klucel (hydroxypropylcellulose) (HPC)) turn out when `Cc1nnc2c3[nH]c4ccccc4c3c(Cl)nn12` was run?
A: 99 % of control

Q: What about the T/C (dose: 100.0 mg/kg/injection, schedule: Q01DX005 (ip), vehicle: Klucel (hydroxypropylcellulose) (HPC)) of the same compound?
A: 92 % of control

Q: What about the T/C (dose: 200.0 mg/kg/injection, schedule: Q01DX005 (ip), vehicle: Klucel (hydroxypropylcellulose) (HPC)) of the same compound?
A: 98 % of control
